≈ marks a conversion by molar mass, not a printed value.
Tested on: polyclonal antibody raised to Immunogen II
Assay: Competitive biochip immunoassay (Evidence Investigator) with Hapten-1 HRP detecting agent
Assay type: binding, sheep
Settings: for % Cross-reactivity: %CR calculated from IC50 ratio x 100; for IC50: concentration causing 50% displacement of signal, competition with Hapten-1 HRP for immobilised polyclonal antibody, 30 minutes at 30° C.
Experimental: A semi-automated Evidence Investigator analyser (Randox Laboratories Ltd., Crumlin, UK) was used as the platform for a biochip assay for the detection of venlafaxine and O-desmethylvenlafaxine. Immunogen II was administered to adult sheep on a monthly basis to provide target-specific polyclonal antisera. IgG was extracted from the antisera, and the purified antibody was immobilised on a biochip (9 mm×9 mm). The assay is based on competition for binding sites of a polyclonal antibody between Hapten-1HRP detecting agent (Example 10) and venlafaxine and O-desmethylvenlafaxine and potential cross-reactants. The antibody was immobilised and stabilised onto the biochip surface as previously described (Fitzgerald et al., 2005). Assay diluent (155 μL), calibrator/venlafaxine and O-desmethylvenlafaxine or potential cross-reactant (25 μL) followed by Hapten-1 HRP detecting agent (120 μL) were added to the appropriate biochip. The biochips were then incubated for 30 minutes at 30° C. on a thermoshaker set at 370 rpm. The biochips were then subjected to 2 quick wash cycles using the wash buffer provided, followed by 4×2 minute wash cycles. 250 μL of signal (1:1 luminol+peroxide, v/v) was then added to each biochip, and after 2 minutes the biochip carrier was imaged in the Evidence Investigator analyser. Calibration curves were generated and these were used to determine the sensitivity and specificity of the immunoassay for venlafaxine, O-desmethylvenlafaxine and potential cross-reactants.
Table 1, cross-reactivity being calculated according to the following formula: %CR=IC50,O-desmethylvenlafaxine/IC50,CR×100 where % CR is the percentage cross-reactivity, IC50, O-desmethylvenlafaxine is the concentration of O-desmethylvenlafaxine which causes 50% displacement of signal and IC50, CR is the concentration of venlafaxine or potential cross-reactant that causes 50% displacement of signal.

Row | SMILES | % Cross-reactivity [%] | IC50 [µg/mL]
1 | CN(C)C[C@H]1CCCC[C@]1(O)c1cccc(O)c1 [O-Desmethyltramadol] | <5.7 | >0.32
2 | COc1cccc(C2(O)CCCCC2CN(C)C)c1 (centres unmarked) [Tramadol] | <5.7 | –
3 | COc1ccc(C(CN(C)C)C2(O)CCCCC2)cc1 (racemic) [Venlafaxine, (RS)-1-[2-(dimethylamino)-1-(4-methoxyphenyl)ethyl]cyclohexanol] | 100 | 0.01831 (≈ 0.066 µM)
4 | CNCC1CCCCC1(O)c1cccc(OC)c1 (centres unmarked) [N-Desmethyltramadol] | <5.7 | >0.32
5 | c1ccc(C2(N3CCCCC3)CCCCC2)cc1 [PCP] | <5.7 | >0.32
6 | CN(C)CC(c1ccc(O)cc1)C1(O)CCCCC1 (racemic) [O-Desmethylvenlafaxine, (RS)-1-[2-(dimethylamino)-1-(4-hydroxyphenyl)ethyl]cyclohexanol] | 48.4 | 0.03786 (≈ 0.144 µM)
7 | CCOC(=O)C1(c2ccccc2)CCN(C)CC1 [Meperidine] | <5.7 | –
8 | COC(=O)C(c1ccccc1)C1CCCCN1 (centres unmarked) [Methylphenidate] | <5.7 | >0.32

Reference: patent US9784752B2, “Venlafaxine assay” (Randox Laboratories, Limited, priority 2012, dated 2017)
